Test results published in paper PMC9653409, “Generative deep learning enables the discovery of a potent and selective RIPK1 inhibitor” (Nature Communications, 2022).
Like-named read-outs stand apart in the source and are kept apart here.

How the values were obtained:
Assay in all cases: Kinase inhibitory activity profiling of RI-962@10 µM (406 kinases, Eurofins)
Assay type in all cases: biochemical
[1] = target: panel of human kinases (kinase named in endpoint) (Homo sapiens, UniProt O14578); conditions: 10 µM; read-out: Activity (%), CRIK(h)
Method in brief: (§1)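 Radiometric filter-binding kinase assays: enzyme preincubated 15 min with compound in 8 mM MOPS pH 7.0, 0.2 mM EDTA, 250 μM peptide substrate, 10 mM magnesium acetate, 10 μM [γ-33P]-ATP. Reaction started with Mg/ATP, run 40 min at room temperature, stopped with phosphoric acid; 33P incorporation read by scintillation counting. Other kinases by similar protocols.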

[2] = target: panel of human kinases (kinase named in endpoint) (Homo sapiens, UniProt Q96L34); conditions: 10 µM; read-out: Activity (%), MARK4(h)
Method in brief: as §1

[3] = target: panel of human kinases (kinase named in endpoint) (Homo sapiens, UniProt Q16513); conditions: 10 µM; read-out: Activity (%), PRK2(h)
Method in brief: as §1

[4] = target: panel of human kinases (kinase named in endpoint) (Homo sapiens, UniProt Q5S007); conditions: 10 µM; read-out: Activity (%), LRRK2(h)
Chain of panel of human kinases (kinase named in endpoint) (Homo sapiens, UniProt Q5S007) (Q5S007 whole entry): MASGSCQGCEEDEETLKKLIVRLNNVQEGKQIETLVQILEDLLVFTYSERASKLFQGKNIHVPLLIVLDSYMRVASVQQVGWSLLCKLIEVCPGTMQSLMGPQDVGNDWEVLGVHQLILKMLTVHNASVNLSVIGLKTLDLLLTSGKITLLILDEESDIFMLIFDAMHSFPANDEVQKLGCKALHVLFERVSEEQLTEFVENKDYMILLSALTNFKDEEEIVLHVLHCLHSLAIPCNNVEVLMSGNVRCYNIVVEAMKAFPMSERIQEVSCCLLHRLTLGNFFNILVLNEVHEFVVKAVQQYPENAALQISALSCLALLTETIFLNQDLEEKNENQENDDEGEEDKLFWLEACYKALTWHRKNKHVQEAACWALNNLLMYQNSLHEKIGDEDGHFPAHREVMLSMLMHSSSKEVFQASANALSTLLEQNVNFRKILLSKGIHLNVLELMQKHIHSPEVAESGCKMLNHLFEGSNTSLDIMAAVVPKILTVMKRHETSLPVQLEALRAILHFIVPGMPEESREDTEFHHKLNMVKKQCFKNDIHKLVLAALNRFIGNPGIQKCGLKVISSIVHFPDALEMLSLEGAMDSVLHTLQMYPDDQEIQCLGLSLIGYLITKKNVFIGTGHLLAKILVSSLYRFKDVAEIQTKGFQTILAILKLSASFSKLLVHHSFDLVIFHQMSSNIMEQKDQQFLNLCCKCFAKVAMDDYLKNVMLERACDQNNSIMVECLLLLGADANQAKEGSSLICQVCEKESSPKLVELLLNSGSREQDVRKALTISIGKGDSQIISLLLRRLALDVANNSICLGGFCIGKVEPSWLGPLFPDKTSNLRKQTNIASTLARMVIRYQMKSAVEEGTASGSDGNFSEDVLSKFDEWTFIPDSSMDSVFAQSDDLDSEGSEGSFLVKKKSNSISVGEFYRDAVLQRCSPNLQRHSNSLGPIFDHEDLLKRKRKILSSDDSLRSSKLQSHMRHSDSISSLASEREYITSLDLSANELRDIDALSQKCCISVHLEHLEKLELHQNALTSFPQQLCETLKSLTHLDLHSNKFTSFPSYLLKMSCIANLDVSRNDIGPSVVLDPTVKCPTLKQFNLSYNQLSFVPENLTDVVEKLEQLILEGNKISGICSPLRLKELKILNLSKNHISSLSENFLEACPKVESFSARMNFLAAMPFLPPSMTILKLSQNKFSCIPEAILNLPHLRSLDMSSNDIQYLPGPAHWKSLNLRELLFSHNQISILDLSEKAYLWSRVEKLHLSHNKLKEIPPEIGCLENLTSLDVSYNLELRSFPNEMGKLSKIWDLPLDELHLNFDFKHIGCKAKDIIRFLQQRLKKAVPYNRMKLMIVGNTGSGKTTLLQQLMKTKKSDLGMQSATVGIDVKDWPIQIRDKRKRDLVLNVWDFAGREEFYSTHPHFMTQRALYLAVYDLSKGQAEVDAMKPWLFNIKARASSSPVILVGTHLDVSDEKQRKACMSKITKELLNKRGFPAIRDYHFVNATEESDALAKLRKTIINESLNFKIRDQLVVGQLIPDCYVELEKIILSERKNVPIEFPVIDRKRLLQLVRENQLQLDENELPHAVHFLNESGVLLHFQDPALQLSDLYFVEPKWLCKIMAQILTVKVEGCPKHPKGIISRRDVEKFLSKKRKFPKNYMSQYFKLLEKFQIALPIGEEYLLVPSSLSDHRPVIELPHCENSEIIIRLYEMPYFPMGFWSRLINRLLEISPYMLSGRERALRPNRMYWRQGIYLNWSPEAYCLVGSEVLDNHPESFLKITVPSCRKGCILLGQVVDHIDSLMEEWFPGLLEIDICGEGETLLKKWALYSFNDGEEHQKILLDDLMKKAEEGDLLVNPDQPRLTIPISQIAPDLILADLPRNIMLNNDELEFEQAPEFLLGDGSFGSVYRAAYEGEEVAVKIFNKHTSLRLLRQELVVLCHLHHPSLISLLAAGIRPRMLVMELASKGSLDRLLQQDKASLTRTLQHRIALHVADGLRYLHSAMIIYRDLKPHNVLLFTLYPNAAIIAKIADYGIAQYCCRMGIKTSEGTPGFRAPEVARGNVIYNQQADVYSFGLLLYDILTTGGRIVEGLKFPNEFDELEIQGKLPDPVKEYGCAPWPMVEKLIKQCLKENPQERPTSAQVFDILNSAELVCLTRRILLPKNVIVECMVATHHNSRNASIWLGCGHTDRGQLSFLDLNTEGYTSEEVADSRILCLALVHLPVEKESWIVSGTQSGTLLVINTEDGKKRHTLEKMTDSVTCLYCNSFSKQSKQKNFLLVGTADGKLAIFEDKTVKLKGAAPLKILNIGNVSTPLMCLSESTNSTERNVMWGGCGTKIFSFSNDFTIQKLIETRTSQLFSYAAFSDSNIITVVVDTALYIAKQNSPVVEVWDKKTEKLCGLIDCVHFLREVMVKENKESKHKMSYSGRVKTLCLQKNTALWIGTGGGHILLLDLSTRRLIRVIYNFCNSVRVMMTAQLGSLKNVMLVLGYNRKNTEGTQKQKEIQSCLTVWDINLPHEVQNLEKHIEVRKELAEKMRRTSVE
Method in brief: as §1

[5] = target: panel of human kinases (kinase named in endpoint) (Homo sapiens, UniProt Q96J92); conditions: 10 µM; read-out: Activity (%), WNK4(h)
Method in brief: as §1

[6] = target: panel of human kinases (kinase named in endpoint) (Homo sapiens, UniProt P08581); conditions: 10 µM; read-out: Activity (%), Met(h)
Method in brief: as §1

[7] = target: panel of human kinases (kinase named in endpoint) (Homo sapiens, UniProt P30530); conditions: 10 µM; read-out: Activity (%), Axl(h)
Method in brief: as §1

[8] = target: panel of human kinases (kinase named in endpoint) (Homo sapiens, UniProt Q16644); conditions: 10 µM; read-out: Activity (%), MAPKAP-K3(h)
Method in brief: as §1

[9] = target: panel of human kinases (kinase named in endpoint) (Homo sapiens, UniProt Q15139); conditions: 10 µM; read-out: Activity (%), PKCμ(h)
Chain of panel of human kinases (kinase named in endpoint) (Homo sapiens, UniProt Q15139) (Q15139 whole entry): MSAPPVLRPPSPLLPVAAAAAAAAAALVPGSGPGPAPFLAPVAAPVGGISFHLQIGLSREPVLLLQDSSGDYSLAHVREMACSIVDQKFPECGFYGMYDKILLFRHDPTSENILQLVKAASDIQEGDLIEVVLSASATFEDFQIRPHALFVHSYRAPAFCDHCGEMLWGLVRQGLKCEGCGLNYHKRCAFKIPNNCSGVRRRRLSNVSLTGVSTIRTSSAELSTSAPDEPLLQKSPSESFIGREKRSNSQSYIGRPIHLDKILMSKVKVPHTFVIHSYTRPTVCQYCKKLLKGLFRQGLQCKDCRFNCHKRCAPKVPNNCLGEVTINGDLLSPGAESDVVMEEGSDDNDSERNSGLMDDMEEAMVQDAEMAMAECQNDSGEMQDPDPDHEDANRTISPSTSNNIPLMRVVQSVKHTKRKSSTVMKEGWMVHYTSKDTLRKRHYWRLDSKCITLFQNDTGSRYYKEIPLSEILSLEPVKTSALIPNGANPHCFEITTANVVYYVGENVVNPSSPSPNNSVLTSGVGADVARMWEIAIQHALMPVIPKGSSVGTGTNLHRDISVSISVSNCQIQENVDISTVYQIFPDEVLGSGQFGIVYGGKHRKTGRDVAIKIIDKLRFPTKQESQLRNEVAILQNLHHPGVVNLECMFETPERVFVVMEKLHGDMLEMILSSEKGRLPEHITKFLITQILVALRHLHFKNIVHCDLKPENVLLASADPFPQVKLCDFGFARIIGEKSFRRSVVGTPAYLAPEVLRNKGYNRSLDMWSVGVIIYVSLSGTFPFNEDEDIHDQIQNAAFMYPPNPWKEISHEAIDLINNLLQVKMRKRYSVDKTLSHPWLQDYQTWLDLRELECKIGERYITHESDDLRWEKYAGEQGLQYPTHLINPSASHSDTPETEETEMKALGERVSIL
Method in brief: as §1

[10] = target: panel of human kinases (kinase named in endpoint) (Homo sapiens, UniProt Q8WTQ7); conditions: 10 µM; read-out: Activity (%), GRK7(h)
Method in brief: as §1

[11] = target: panel of human kinases (kinase named in endpoint) (Homo sapiens, UniProt Q9BZL6); conditions: 10 µM; read-out: Activity (%), PKD2(h)
Method in brief: as §1

[12] = target: panel of human kinases (kinase named in endpoint) (Homo sapiens, UniProt P16234); conditions: 10 µM; read-out: Activity (%), PDGFRα(h)
Method in brief: as §1

[13] = target: panel of human kinases (kinase named in endpoint) (Homo sapiens, UniProt P42680); conditions: 10 µM; read-out: Activity (%), Tec(h) activated
Method in brief: as §1

[14] = target: panel of human kinases (kinase named in endpoint) (Homo sapiens, UniProt P53667); conditions: 10 µM; read-out: Activity (%), LIMK1(h)
Method in brief: as §1

[15] = target: panel of human kinases (kinase named in endpoint) (Homo sapiens, UniProt Q96GD4); conditions: 10 µM; read-out: Activity (%), Aurora-B(h)
Method in brief: as §1

[16] = target: panel of human kinases (kinase named in endpoint) (Homo sapiens, UniProt P27448); conditions: 10 µM; read-out: Activity (%), MARK3(h)
Chain of panel of human kinases (kinase named in endpoint) (Homo sapiens, UniProt P27448) (P27448 whole entry): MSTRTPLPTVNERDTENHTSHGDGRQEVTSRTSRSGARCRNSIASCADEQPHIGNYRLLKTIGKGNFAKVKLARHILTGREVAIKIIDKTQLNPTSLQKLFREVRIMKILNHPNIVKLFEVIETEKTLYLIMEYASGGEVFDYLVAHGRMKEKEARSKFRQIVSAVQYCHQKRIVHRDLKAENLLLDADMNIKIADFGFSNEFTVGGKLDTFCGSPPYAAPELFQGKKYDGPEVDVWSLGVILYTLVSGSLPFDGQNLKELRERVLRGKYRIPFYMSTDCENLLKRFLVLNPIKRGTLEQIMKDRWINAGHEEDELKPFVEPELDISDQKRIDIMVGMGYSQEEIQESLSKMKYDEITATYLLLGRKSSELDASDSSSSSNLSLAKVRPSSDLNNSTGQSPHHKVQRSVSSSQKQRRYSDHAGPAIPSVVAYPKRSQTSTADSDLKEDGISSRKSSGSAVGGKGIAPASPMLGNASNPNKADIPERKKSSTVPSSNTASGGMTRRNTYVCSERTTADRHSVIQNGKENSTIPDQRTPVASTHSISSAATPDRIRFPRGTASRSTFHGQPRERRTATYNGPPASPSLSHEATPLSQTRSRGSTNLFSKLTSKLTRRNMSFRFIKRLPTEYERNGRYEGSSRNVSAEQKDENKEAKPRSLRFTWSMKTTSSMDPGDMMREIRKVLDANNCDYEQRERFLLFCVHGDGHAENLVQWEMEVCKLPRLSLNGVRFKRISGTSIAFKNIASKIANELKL
Method in brief: as §1

[17] = target: panel of human kinases (kinase named in endpoint) (Homo sapiens, UniProt Q92630); conditions: 10 µM; read-out: Activity (%), DYRK2(h)
Method in brief: as §1

[18] = target: panel of human kinases (kinase named in endpoint) (Homo sapiens, UniProt P53350); conditions: 10 µM; read-out: Activity (%), Plk1(h)
Method in brief: as §1

[19] = target: panel of human kinases (kinase named in endpoint) (Homo sapiens, UniProt Q96PN8); conditions: 10 µM; read-out: Activity (%), TSSK3(h)
Method in brief: as §1

[20] = target: panel of human kinases (kinase named in endpoint) (Homo sapiens, UniProt Q9UPE1); conditions: 10 µM; read-out: Activity (%), MSSK1(h)
Method in brief: as §1

[21] = target: panel of human kinases (kinase named in endpoint) (Homo sapiens, UniProt Q9NYV4); conditions: 10 µM; read-out: Activity (%), CDK12/cyclinK(h)
Method in brief: as §1

[22] = target: panel of human kinases (kinase named in endpoint) (Homo sapiens, UniProt Q7L7X3); conditions: 10 µM; read-out: Activity (%), TAO1(h)
Method in brief: as §1

[23] = target: panel of human kinases (kinase named in endpoint) (Homo sapiens, UniProt P42345); conditions: 10 µM
Method in brief: as §1

[24] = target: panel of human kinases (kinase named in endpoint) (Homo sapiens, UniProt Q13188); conditions: 10 µM; read-out: Activity (%), MST2(h)
Method in brief: as §1

[25] = target: panel of human kinases (kinase named in endpoint) (Homo sapiens, UniProt Q92519); conditions: 10 µM; read-out: Activity (%), TRB2(h)
Method in brief: as §1

[26] = target: panel of human kinases (kinase named in endpoint) (Homo sapiens, UniProt Q16832); conditions: 10 µM; read-out: Activity (%), DDR2(h)
Chain of panel of human kinases (kinase named in endpoint) (Homo sapiens, UniProt Q16832) (Q16832 22-855): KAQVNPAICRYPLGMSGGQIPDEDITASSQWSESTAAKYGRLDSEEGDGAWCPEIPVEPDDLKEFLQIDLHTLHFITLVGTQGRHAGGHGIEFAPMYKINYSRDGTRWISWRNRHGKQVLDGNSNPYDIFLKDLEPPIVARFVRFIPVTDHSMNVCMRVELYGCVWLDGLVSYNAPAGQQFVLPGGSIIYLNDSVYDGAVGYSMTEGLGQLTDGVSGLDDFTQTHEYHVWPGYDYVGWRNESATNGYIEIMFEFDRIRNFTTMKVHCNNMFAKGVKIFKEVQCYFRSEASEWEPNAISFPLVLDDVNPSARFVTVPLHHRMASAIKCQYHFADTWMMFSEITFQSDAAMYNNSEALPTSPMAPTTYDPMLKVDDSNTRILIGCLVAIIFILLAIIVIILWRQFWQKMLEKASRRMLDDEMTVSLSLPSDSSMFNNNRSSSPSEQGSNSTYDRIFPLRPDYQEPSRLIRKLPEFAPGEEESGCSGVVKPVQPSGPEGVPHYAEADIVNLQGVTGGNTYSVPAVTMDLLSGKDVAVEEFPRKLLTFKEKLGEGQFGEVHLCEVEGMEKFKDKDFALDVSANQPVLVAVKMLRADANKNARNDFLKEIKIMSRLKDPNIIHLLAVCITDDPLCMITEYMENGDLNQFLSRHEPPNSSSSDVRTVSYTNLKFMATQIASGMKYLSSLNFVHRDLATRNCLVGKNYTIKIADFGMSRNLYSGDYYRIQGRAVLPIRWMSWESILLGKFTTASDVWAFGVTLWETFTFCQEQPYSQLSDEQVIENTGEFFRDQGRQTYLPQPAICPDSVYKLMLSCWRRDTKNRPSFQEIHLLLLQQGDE
Method in brief: as §1

Compound `CC(C)C(=O)Nc1nc2cc(-c3ccc4c(c3)c(C(=O)NC(C)c3ccccc3)cn4C)ccn2n1` (stereo not drawn) [RI-962] has an activity at 10 µM [1] of 101%, an activity at 10 µM [2] of 102% and an activity at 10 µM [3] of 101%. For the same compound, the activity at 10 µM [4] was 102%, the activity at 10 µM [5] was 80% and the activity at 10 µM [6] was 102%. For the same compound, the activity at 10 µM [7] was 110%, the activity at 10 µM [8] was 98% and the activity at 10 µM [9] was 87%. It also gave an activity at 10 µM [10] of 60%, an activity at 10 µM [11] of 98% and an activity at 10 µM [12] of 99%. The activity at 10 µM [13] was 103%, the activity at 10 µM [14] was 97% and the activity at 10 µM [15] was 119%. For the same compound, the activity at 10 µM [16] was 84%, the activity at 10 µM [17] was 92% and the activity at 10 µM [18] was 122%. It also gave an activity at 10 µM [19] of 94%, an activity at 10 µM [20] of 85% and an activity at 10 µM [21] of 117%. For the same compound, the activity at 10 µM [22] was 81%, the activity at 10 µM ([23]; read-out: Activity (%), mTOR(h)) was 87% and the activity at 10 µM ([23]; read-out: Activity (%), mTOR/FKBP12(h)) was 98%. The activity at 10 µM [24] was 64%, the activity at 10 µM [25] was 91% and the activity at 10 µM [26] was 126%.
